Test results published in patent publication US9284350B2, “IAP BIR domain binding compounds” (Pharmascience Inc., priority 2010, dated 2016).
pEC50, pKi: −log10 of the molar value.

Columns and labels:
cIAP2 = molecular target: T1, cIAP2 (Homo sapiens, UniProt Q13489); experiment: Fluorescence polarization-based competition assay, cIAP2; type: binding; conditions: FP assay, ki derived from IC50
T1 construct: GST (N); made in house; host or cells: E. coli DH5α
Method: (§1) Binding of compounds of Formula 1 to target BIR domains was measured using a fluorescence-polarization (FP) assay. Fluorescence-polarization was evaluated using a GENios microplate reader (TECAN) Pro instrument with the excitation filter set at 485 nm and the emission filter set at 535 nm. The final amount of protein used in the assay corresponds to the amount of protein necessary to obtain 80% of the maximum FP value in a P1 or P2 fluorescent (FITC) probe saturation experiment. The compounds potency (IC50) and selectivity, was assessed in the presence of the amount of target protein established, fluorescent probe, and a 10 point serial dilution in assay buffer (50 mM Hepes, pH 7.5, 250 mcg/mL γ-globulin, 2 mM DTT, 1% DMSO) of the selected compounds.
(§2) Assays were carried out in duplicate using untreated black 96-well plates (Corning #3915) and a total volume of 100 microliters, containing 25 microliters of fluorescent probe at a final concentration of 2 nM in assay buffer, 25 microliters of diluted compound, 25 microliters of BIR protein into assay buffer and 25 microliters of assay buffer. Buffer only (blank) or probe only in buffer (G-factor) were used as controls for calibration. The plate was incubated at room temperature in the dark for one hour and FP values in millipolarization units (mP) were recorded using Genios Pro FP reader.
(§3) The measured FP values (mP) were then plotted against compound concentration, and IC50 values were calculated based on a sigmoidal dose-response (variable-slope) curve fit using GraphPad Prism version 4.02 for Windows, GraphPad Software, San Diego Calif. USA and/or CambridgeSoft BioAssay Enterprise Version 10.1. The IC50 value is the concentration of test compound at which 50% of the tracer was displaced. ki values were derived from the calculated IC50 values as described above and according to the equation described in Nikolovska-Coleska, Z. (2004) Anal Biochem 332, 261-273. The results are presented in Table 2, wherein A=less than 25 nM; B=less than 250 nM; C=less than 1000 nM; and D=greater than 1000 nM.

c-IAP1 = molecular target: T2, c-IAP1 (Homo sapiens, UniProt Q13490); experiment: Fluorescence polarization-based competition assay, c-IAP1; type: binding; conditions: FP assay, ki derived from IC50
T2 construct: GST (N); made in house; host or cells: E. coli DH5α
Method: as §1, §2, §3

XIAP = molecular target: T3, XIAP (Homo sapiens, UniProt P98170); experiment: Fluorescence polarization-based competition assay, XIAP; type: binding; conditions: FP assay, ki derived from IC50
T3 construct: fused on or other part: GST tag at the N-terminus (pGEX4T vectors)
Method: as §1, §2, §3

[1] = tested on: Colorectal carcinoma HCT116 cells; experiment: Cell death assay (MTT) in combination with HGS ETR1; type: cell-based; conditions: with HGS ETR1 30 ng/ml, 72 hours, read-out: HCT116+ mapatubimap EC50
Method: Colorectal carcinoma HCT116 cells were cultured as monolayers in 96 well plates at a density of 2000 cells per well in McCoy's 5a medium (HyClone) supplemented with 2.2 g/L sodium bicarbonate, 10% FBS (HyClone) and 1% penicillin/streptomycin (HyClone). 24 hours later, triplicate wells were treated with HGS ETR1 (30 ng/ml) in combination with compound. Cells were incubated in the presence of compound and HGS agonistic Trail receptor antibody, ETR1 (Mapatumamab, 30 ng/ml) for 72 hours. Metabolic viability of remaining cells was assessed by MTT (thiazolyl blue tetrazolium bromide, Sigma) assay.
EC50 values (50% cell survival in the presence of compound as compared to untreated controls) were calculated from survival curves using BioAssay software (CambridgeSoft) and GraphPad Prism (Graph Pad Software Inc.). The results are provided in Table 3, below, wherein A=less than 50 nM; B=less than 250 nM; C=less than 1000 nM; and D=greater than 1000 nM.

T1 sequence (Q13489 236-349): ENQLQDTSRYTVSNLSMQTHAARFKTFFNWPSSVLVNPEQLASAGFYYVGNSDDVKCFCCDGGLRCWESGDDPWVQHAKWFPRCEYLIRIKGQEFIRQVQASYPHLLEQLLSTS
T3 sequence (P98170 246-497 limits assumed): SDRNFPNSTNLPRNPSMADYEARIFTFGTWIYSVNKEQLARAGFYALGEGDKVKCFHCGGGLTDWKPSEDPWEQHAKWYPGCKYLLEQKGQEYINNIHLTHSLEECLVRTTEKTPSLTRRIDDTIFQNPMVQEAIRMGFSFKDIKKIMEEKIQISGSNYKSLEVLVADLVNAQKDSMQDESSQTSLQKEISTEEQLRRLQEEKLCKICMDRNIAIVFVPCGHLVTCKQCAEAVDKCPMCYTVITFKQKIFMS
T2 sequence (Q13490 251-363): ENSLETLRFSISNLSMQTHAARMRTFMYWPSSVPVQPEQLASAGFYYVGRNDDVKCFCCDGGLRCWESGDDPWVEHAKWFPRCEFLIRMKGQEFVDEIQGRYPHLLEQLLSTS

pKi (cIAP2) | pKi (c-IAP1) | pKi (XIAP) | Structure (SMILES) | pEC50 [1]
> 7.60 | > 7.60 | > 6.60 | CN[C@@H](C)C(=O)N[C@H](C(=O)N1CCC[C@H]1CN(CCc1ccc(F)cc1)C(=O)c1cn2c(n1)CCC2)C(C)(C)C [Compound 67] | > 7.30
> 7.60 | > 7.60 | > 6.60 | CN[C@@H](C)C(=O)N[C@H](C(=O)N1CCC[C@H]1CN(CCc1ccc(F)cc1)C(=O)c1cc2ccccn2c1)C(C)(C)C [Compound 68] | > 6.60
> 7.60 | > 7.60 | > 6.60 | CN[C@@H](C)C(=O)N[C@H](C(=O)N1C[C@@H](NC(=O)c2ccccc2)C[C@H]1CN(CCc1ccc(F)cc1)C(=O)c1cn2ccccc2n1)C(C)(C)C [Compound 69] | > 6.60
> 6.60 | > 7.60 | > 6.00 | CN[C@@H](C)C(=O)N[C@H](C(=O)N1C[C@@H](NC(C)=O)C[C@H]1CN(CCc1ccc(F)cc1)C(=O)c1cn2ccccc2n1)C(C)(C)C [Compound 70] | > 6.00
> 7.60 | > 7.60 | > 6.60 | CN[C@@H](C)C(=O)N[C@H](C(=O)N1CCC[C@H]1CN(CCc1ccc(F)cc1)C(=O)c1cn(-c2ccc(F)cc2)cn1)[C@@H](C)OC [Compound 72] | > 7.30
> 7.60 | > 7.60 | > 6.60 | CN[C@@H](C)C(=O)N[C@H](C(=O)N1CCC[C@H]1CN(CCc1ccc(F)cc1)C(=O)c1cn(C)cn1)[C@@H](C)OC [Compound 73] | > 6.60
> 7.60 | > 7.60 | > 6.60 | CN[C@@H](C)C(=O)N[C@H](C(=O)N1CCC[C@H]1CN(CCc1ccc(F)cc1)C(=O)c1cn2cc(F)cnc2n1)[C@@H](C)OC [Compound 74] | > 7.30
> 7.60 | > 7.60 | > 6.60 | CN[C@@H](C)C(=O)N[C@H](C(=O)N1CCC[C@H]1CN(CCc1ccc(F)cc1)C(=O)c1cn2c(n1)CCC2)[C@@H](C)OC [Compound 75] | > 7.30
> 7.60 | > 7.60 | > 6.60 | CCO[C@H](C)[C@H](NC(=O)[C@H](C)NC)C(=O)N1CCC[C@H]1CN(CCc1ccc(F)cc1)C(=O)c1cn(C)cn1 [Compound 76] | > 7.30
> 7.60 | > 7.60 | > 6.60 | CN[C@@H](C)C(=O)N[C@H](C(=O)N1CCC[C@H]1CN(CCc1ccc(F)cc1)C(=O)c1cn(-c2ccccc2)nn1)[C@@H](C)OC [Compound 77] | > 7.30
> 7.60 | > 7.60 | > 6.60 | CCO[C@H](C)[C@H](NC(=O)[C@H](C)NC)C(=O)N1CCC[C@H]1CN(CCc1ccc(F)cc1)C(=O)c1cn2ccccc2n1 [Compound 78] | > 7.30
> 7.60 | > 7.60 | > 6.60 | CCO[C@H](C)[C@H](NC(=O)[C@H](C)NC)C(=O)N1CCC[C@H]1CN(CCc1ccc(F)cc1)C(=O)c1cn(-c2ccc(F)cc2)cn1 [Compound 79] | > 7.30
> 7.60 | > 7.60 | > 6.60 | CCO[C@H](C)[C@H](NC(=O)[C@H](C)NC)C(=O)N1CCC[C@H]1CN(CCc1ccc(F)cc1)C(=O)c1cn2cc(F)cnc2n1 [Compound 80] | > 7.30
> 7.60 | > 7.60 | > 6.60 | CCO[C@H](C)[C@H](NC(=O)[C@H](C)NC)C(=O)N1CCC[C@H]1CN(CCc1ccc(F)cc1)C(=O)c1cn2c(n1)CCC2 [Compound 81] | > 7.30
> 7.60 | > 7.60 | > 7.60 | CN[C@@H](C)C(=O)N[C@H](C(=O)N1C[C@@H](Oc2ccc(F)cc2)C[C@H]1CN(CCc1ccc(F)cc1)C(=O)c1cn(C)cn1)C(C)(C)C [Compound 82] | > 7.30
> 7.60 | > 7.60 | > 7.60 | CN[C@@H](C)C(=O)N[C@H](C(=O)N1C[C@@H](Oc2ccc(F)cc2)C[C@H]1CN(CCc1ccc(F)cc1)C(=O)c1cn2c(n1)CCC2)C(C)(C)C [Compound 83] | > 7.30
> 7.60 | > 7.60 | > 7.60 | CN[C@@H](C)C(=O)N[C@H](C(=O)N1C[C@@H](Oc2ccc(F)cc2)C[C@H]1CN(CCc1ccc(F)cc1)C(=O)c1cn2ccccc2n1)C(C)(C)C [Compound 84] | > 7.30
> 7.60 | > 7.60 | > 6.00 | CN[C@@H](C)C(=O)N[C@H](C(=O)N1CCC[C@H]1CN(CCc1ccc(F)cc1)C(=O)c1nccn1C)[C@@H](C)OC [Compound 85] | > 7.30
> 7.60 | > 7.60 | > 6.60 | CN[C@@H](C)C(=O)N[C@H](C(=O)N1C[C@@H](NC(=O)c2ccccc2)C[C@H]1CN(CCc1ccc(F)cc1)C(=O)c1cn(C)cn1)C(C)(C)C [Compound 86] | > 7.30
> 7.60 | > 7.60 | > 6.60 | CN[C@@H](C)C(=O)N[C@H](C(=O)N1C[C@@H](NC(=O)c2ccccc2)C[C@H]1CN(CCc1ccc(F)cc1)C(=O)c1cn(-c2ccc(F)cc2)cn1)C(C)(C)C [Compound 87] | > 6.60
> 7.60 | > 7.60 | > 6.60 | CN[C@@H](C)C(=O)N[C@H](C(=O)N1CCC[C@H]1CN(CCc1ccc(F)cc1)C(=O)c1cc(-c2ccccc2)[nH]n1)C(C)(C)C [Compound 88] | > 6.60
> 7.60 | > 7.60 | > 6.60 | CN[C@@H](C)C(=O)N[C@H](C(=O)N1C[C@@H](NC(=O)c2ccccc2)C[C@H]1CN(CCc1ccc(F)cc1)C(=O)c1cn2c(n1)CCC2)C(C)(C)C [Compound 89] | > 7.30
> 7.60 | > 7.60 | > 6.60 | CN[C@@H](C)C(=O)N[C@H](C(=O)N1CCC[C@H]1CN(CCc1ccc(F)cc1)C(=O)c1cnn(-c2ccccc2)c1)C(C)(C)C [Compound 90] | > 6.60
> 7.60 | > 7.60 | > 6.60 | CN[C@@H](C)C(=O)N[C@H](C(=O)N1CCC[C@H]1CN(CCc1ccc(F)cc1)C(=O)c1cn(C2CCCC2)cn1)C(C)(C)C [Compound 91] | > 7.30
> 6.60 | > 7.60 | > 6.00 | CN[C@@H](C)C(=O)N[C@H](C(=O)N1CCC[C@H]1CN(CCc1ccc(F)cc1)C(=O)c1cncn1C)C(C)(C)C [Compound 92] | > 6.60
> 7.60 | > 7.60 | > 6.60 | CN[C@@H](C)C(=O)N[C@H](C(=O)N1CCC[C@H]1CN(CCc1ccc(F)cc1)C(=O)c1cn(C2CCCCC2)cn1)C(C)(C)C [Compound 93] | > 7.30
> 7.60 | > 7.60 | > 6.60 | CN[C@@H](C)C(=O)N[C@H](C(=O)N1CCC[C@H]1CN(CCc1ccc(F)cc1)C(=O)c1cn(C(C)C)cn1)C(C)(C)C [Compound 94] | > 7.30
> 7.60 | > 7.60 | > 6.60 | CN[C@@H](C)C(=O)N[C@H](C(=O)N1CCC[C@H]1CN(CCc1ccc(F)cc1)C(=O)c1cn(C2CCOCC2)cn1)C(C)(C)C [Compound 95] | > 7.30
> 7.60 | > 7.60 | > 6.60 | CN[C@@H](C)C(=O)N[C@H](C(=O)N1C[C@@H](Oc2ccc(OC)cc2)C[C@H]1CN(CCc1ccc(F)cc1)C(=O)c1cn(C)cn1)C(C)(C)C [Compound 96] | > 7.30
> 7.60 | > 7.60 | > 6.60 | CN[C@@H](C)C(=O)N[C@H](C(=O)N1C[C@@H](Oc2ccc(OC(F)(F)F)cc2)C[C@H]1CN(CCc1ccc(F)cc1)C(=O)c1cn(C)cn1)C(C)(C)C [Compound 97] | > 7.30
